The values below come from patent US20250170258A1, “DOSAGE REGIMEN” (priority 2022, published 2025).

For this experiment, the system named is pancreatic cancer PAXF 1657 patient-derived xenograft. Description: pancreatic cancer PAXF 1657 patient-derived xenograft model. The format is in vivo. Particulars: PAXF 1657 PDX, tested alone (single agent). The procedure: Gemcitabine is a nucleoside metabolic inhibitor. It inhibits DNA synthesis by inhibiting the ribonucleotide reductase, cell cycle-specific for the S-phase (also blocks cellular progression at G1/S-phase). It has been used as monotherapy or combination chemotherapy to treat various cancers. […] ADCT-601 and gemcitabine were tested either alone or in combination in the pancreatic cancer PAXF 1657 patient-derived xenograft model.
On the technique in general: In xenograft studies the graft and the host belong to different species.

With `Nc1ccn([C@@H]2O[C@H](CO)[C@@H](O)C2(F)F)c(=O)n1` [gemcitabine], the anti-tumour activity result is listed as “limited anti-tumour activity”.
